In patent US20220308044A1, “NOVEL LIVE-CELL ASSAY FOR NEURONAL ACTIVITY” (UNIVERSITY OF UTAH RESEARCH FOUNDATION, priority 2019, published 2022):
Blank lines part the entries; values can stand above or below the molecule they belong to.

How the values were obtained:
WT neurons = experiment: Secreted Neuronal Activity Reporter (SNAR) dual secreted luciferase assay in primary neuronal cultures; assay type: cell-based, mouse; settings: for effect of individual inhibitors on SNAR activity: prolonged treatment, FIG. 3A
CamKII neurons = experiment: Cre-dependent (floxed) SNAR assay with CamKII:Cre; assay type: cell-based, mouse; settings: FIG. 6C
Procedure: Plasmid Cloning. The SNAR construct was synthesized by first introducing 2 core SARE (cSARE) sequences into an AAV vector backbone that included the Arc minimal promoter and the Gaussia luciferase coding sequences using inFusion cloning. A single cSARE sequence was synthesized using a long primer that was then used as a PCR template. Two additional cSARE sequences were then added, one at a time preceding the first 2 cSAREs. The entire 4× cSARE-ArcMin-Gluc was then cloned as an insert into an FCK vector (Addgene, Watertown, Mass.; catalog no. 51694) using restriction enzymes PacI and EcoRI for use as a transfer plasmid and packaging into lentivirus particles. Secreted Nanoluciferase (sNluc) was obtained by adding the Ig-kappa signal peptide to its N-terminus using a long primer. sNluc was then inserted into an FCK vector with the hPGK promoter. Each construct was then cloned into a DIO vector backbone (Addgene, Watertown, Mass.; catalog no. 87168) to obtain a Cre-dependent expression construct. […]
Luciferase Assays. To determine luciferase activity luminescencence from media samples was measured. […] For substrates, Coelenterazine (CTZ)-native (NanoLight Technology, Pinetope, Ariz.; catalog no. 303) and FMZ (Promega NanoGlo Assay; Promega, Madison, Wis.; catalog no. N1110) were added using a micro-injector connected to the plate reader (BioTek Synergy HT; Winooski, Vt.). […]

effect of individual inhibitors on SNAR activity (WT neurons): dramatically suppressed SNAR activity
Molecule: NC(CCCP(=O)(O)O)C(=O)O (centres unmarked) [AP5]
effect on reporter accumulation (CamKII neurons): decrease in reporter accumulation similar to that of the non-specific reporter

effect on SNAR (WT neurons; 50 μM, FIG. 4A): reduced SNAR
Molecule: NC(=O)N1c2ccccc2C=Cc2ccccc21 [CBZ, carbamazepine]

time after treatment at which the increase in SNAR activity was observed (WT neurons; kinetic analysis, chronic blockage of AMPAR-mediated transmission, FIG. 3B): 16 to 40 h
effect of individual inhibitors on SNAR activity (WT neurons): increased SNAR activity
Molecule: N#Cc1cc2[nH]c(=O)c(=O)[nH]c2cc1[N+](=O)[O-] [CNQX]

Molecule: N#CC(=C(/N)Sc1ccccc1N)/C(C#N)=C(\N)Sc1ccccc1N [U0126]
effect on SNAR activity / accumulation (WT neurons): significantly suppressed SNAR accumulation

effect on reporter activity (WT neurons; 80 μM, at DIV14, FIG. 4A): significantly reduced reporter activity
Molecule: O=C1NC(=O)C(c2ccccc2)(c2ccccc2)N1 [phenytoin]

B1: BDNF: a neurotropic factor that enhances synapse formation and transmission (protein, UniProt P23560 19-247, looked up)
Neurotrophic factor BDNF …: APMKEANIRGQGGLAYPGVRTHGTLESVNGPKAGSRGLTSLADTFEHVIEELLDEDQKVRPNEENNKDADLYTSRVMLSSQVPLEPPLLFLLEEYKNYLDAANMSMRVRRHSDPARRGELSVCDSISEWVTAADKKTAVDMSGGTVTVLEKVPVSKGQLKQYFYETKCNPMGYTKEGCRGIDKRHWNSQCRTTQSYVRALTMDSKKRIGWRFIRIDTSCVCTLTIKRGR
effect on reporter activity compared to a vehicle control (WT neurons; 50 ng/mL, 16 hours and 40 hours after the treatment, FIG. 4B): significantly and robustly increased reporter activity
